# Laboratory results from patent publication US20140288056A1, “METHODS FOR NON-TOXIC TREATMENT FOR DRUG WITHDRAWAL” (DEMERX, INC., priority 2013, published 2014).
# Tests used:
# dogs [1] = experiment: Fourteen day repeat dose toxicity in dogs, oral gavage; type: in vivo, dog
# Description: The objective of this study was to determine the toxicity profile of noribogaine HCl given following oral (gavage) administration to dogs for 14 days according to the following Table 3 below:
# (§1) Noribogaine HCl was administered to groups of 4 male and 4 female dogs by single oral gavage daily for 14 days at doses of 0, 0.5, 1.0 and 5.0 mg/kg/day. An additional group of 4 male and 4 female dogs received either the vehicle control or 5.0 mg/kg/day for 14 days and were held for an additional 28 days after cessation of dosing to assess recovery from any potential drug-induced changes. The study was conducted under GLP guidelines and included comprehensive examinations of clinical signs, body weight, clinical pathology parameters, ophthalmologic examinations, ECG recordings and analyses of plasma for bioanalytical measurement of drug levels at appropriate intervals during the study. At the termination of the dosing phase and at the termination of the recovery phase, all dogs were subjected to a complete post-mortem examination including gross examination of major organs and histologic examination of an extensive list of tissues. Additional sections of brain were obtained from cerebrum, cerebellus, brain stem and spinal cord and examined histologically to evaluate potential effects on brain histopathology. In addition, these sections were examined with immunohistochemical stains for GFAP for evidence of gliosis and Calbindin for a more comprehensive examination of cerebellar Purkinje cells.
# The only target tissue identified in this study was the lacrimal gland of dogs receiving 5 mg/kg/day. […] There was an associated mononuclear infiltration in the draining mandibular lymph nodes of affected dogs in this dose group. […] There was no clear evidence of local irritation associated with drug treatment in these high dose dogs. […] While slight atrophy was still evident in the acinar cells of the gland after 28 days off drug, no evidence of continuing and ongoing degeneration or cellular infiltration was observed. The NOAEL in this study was 1 mg/kg/day based on the lacrimal gland changes at 5 mg/kg/day.
# Sprague-Dawley rat = experiment: Single dose toxicity in rats, oral gavage; type: in vivo
# Description: The objective of this study was to determine the toxicity and toxicokinetic profile of noribogaine HCl following a single oral (gavage) administration in the Sprague-Dawley rat. A single dose of 100, 300 and 800 mg/kg (achieved with doses of 400 mg/kg 3 h +/−30 min apart because of the limitations of maximum dose formulation concentration). Five male rats/group were used. […] Hypoactivity, vocalization, chewing movements, changes in respiration/posture, salivation, stimuli sensitivity, tremors, twitches and penile erection occurred prior to death. […] The NOAEL was determined to be 100 mg/kg.
# Sprague-Dawley rats = experiment: Fourteen day repeat dose toxicity in rats, oral gavage; type: in vivo, rat
# Description: This study was conducted to evaluate the toxicity profile of noribogaine-HCl following oral (gavage) administration to the rat for 14 days following Table 2 below:
# Male and female Sprague-Dawley rats, 10/sex/group, were administered 0, 25, 50 or 100 mg/kg noribogaine HCl daily by single oral gavage for 14 days. An additional 5 rats/sex/group in the 0 (control) and 100 mg/kg groups were retained for a 28 day recovery period during which no drug was administered. Six rats/sex/group (3 rats/sex controls) were similarly dosed and sampled on study days 1 and 14 for analysis of noribogaine-HCl concentrations in the blood.
# [2] = Plasma toxicokinetics in dogs, 14 day repeat dose study; type: in vivo, dog
# Description: as §1
# [3] = Human pharmacokinetic study, single oral dose, fasting healthy volunteers; type: in vivo; settings: for mean AUC/24 hr / mean Cmax / mean AUC/24: fasting, serum
# Description: In double blind studies, fasting healthy volunteers (6 per cohort) were treated once orally with a tablet of noribogaine HCl. In escalating cohorts, the volunteers received 3 mg, 10 mg, 30 mg or 60 mg noribogaine.
# dogs [4] = experiment: Acute oral toxicity/TK study in dogs; type: in vivo, dog
# various animal species = experiment: Pre-clinical toxicity studies in various animal species; type: in vivo
# Text: Given the signs of efficacy that noribogaine has shown, there is a need for a method to administer noribogaine in dosages that provide efficacy without leading to any significant deleterious clinical signs.
# drug-seeking behavior = experiment: Animal studies in various addiction models; type: in vivo
# psychotomimetic effects = experiment: Evaluation of psychotomimetic effects in an animal model; type: in vivo
# cynomolgus monkey = experiment: Single dose toxicity in cynomolgus monkeys, oral gavage; type: in vivo
# Description: The objective of the study was to determine the toxicity and toxicokinetic profile of noribogaine following oral (gavage) administration to the cynomolgus monkey. The test article was administered as follows in Table 1:
# Parameters monitored on the study included: mortality, clinical signs and body weights. Blood samples were collected for TK evaluation. […] The single dose maximum tolerated dose (MTD) was determined to be greater than 160 mg/kg based on the parameters monitored during the study.
# [5] = female dogs, Gr 2 0.5 mg/kg, D 1
# [6] = female dogs, Gr 2 0.5 mg/kg, D 14
# [7] = female dogs, Gr 3 1.0 mg/kg, D 1
# [8] = female dogs, Gr 3 1.0 mg/kg, D 14
# [9] = female dogs, Gr 4 5.0 mg/kg, D 1
# [10] = female dogs, Gr 4 5.0 mg/kg, D 14
# [11] = male dogs, Gr 2 0.5 mg/kg, D 14
# [12] = male dogs, Gr 3 1.0 mg/kg, D 14
# [13] = male dogs, Gr 4 5.0 mg/kg, D 14
smiles,measurement,setting,value
CC[C@@H]1C[C@H]2CC3c4[nH]c5ccc(O)cc5c4CCN(C2)C31.Cl [noribogaine HCl],Lacrimal gland changes,dogs [1]; 5 mg/kg/day for 14 days,slight to moderate atrophy and degeneration of the acinar cells
same,Lacrimal gland change in recovery group,"dogs [1]; 5 mg/kg/day, 28 days off drug",clear evidence of regeneration
same,"Adverse effect in clinical observations, body weights, clinical pathological parameters, ophthalmologic examinations, ECG recordings, or gross lesions at necropsy","dogs [1]; 0.5, 1.0 and 5.0 mg/kg/day for 14 days, dosing or recovery phase",No evidence of adverse effect
same,"Drug-induced effect in any other tissue including brain (histopathology, immunohistochemistry)",dogs [1]; 14 days oral,No evidence of drug-induced effect
same,NOAEL,"dogs [1]; 14 days oral, based on lacrimal gland changes at 5 mg/kg/day",1 mg/kg/day
same,Treatment related signs,Sprague-Dawley rat; 100 mg/kg,did not show any treatment related signs
same,"Rats with hypoactivity, vocalization, salivation, stimuli sensitivity, loss of limb function and lying on the cage floor","Sprague-Dawley rat; 300 mg/kg, day of treatment, persisted until Day 2",3/5
same,Mortality,"Sprague-Dawley rat; 800 mg/kg (two doses of 400 mg/kg 3 h apart), single oral gavage, male rats",Mortality occurred in all male rats
same,Time of mortality after administration of the second dose,"Sprague-Dawley rat; 800 mg/kg group, after second dose of 400 mg/kg",2 to 3 h
same,NOAEL,"Sprague-Dawley rat; single oral dose, male rats",100 mg/kg
same,Body weight change,"Sprague-Dawley rats; 100 mg/kg high dose, females",−2.6%
same,Body weight change,"Sprague-Dawley rats; 100 mg/kg high dose, males",−5.5%
same,Food consumption change,"Sprague-Dawley rats; 100 mg/kg high dose, males and females",−4.7%
same,"Test article-related effects on mortality, clinical signs, ophthalmoscopy, hematology, coagulation parameters, clinical chemistry, urinalysis, gross necropsy or histopathology","Sprague-Dawley rats; 25, 50 or 100 mg/kg daily for 14 days",no test article-related effects
same,Differences in the brain in sections stained for GFAP or Calbindin,Sprague-Dawley rats; 14 days oral,No treatment-related differences
same,NOAEL,"Sprague-Dawley rats; 14 days oral, highest dose tested",100 mg/kg
same,Liver weight,"Sprague-Dawley rats; mid- and high dose groups (50 and 100 mg/kg), considered incidental",Minor increases
same,Plasma level at 24 h post-dosing,"[2]; Group 4 (5.0 mg/kg), male and female dogs, Days 1 and 14",significant levels of noribogaine were still detected
same,Adverse effects,"[3]; 3, 10, 30 or 60 mg single oral tablet",no clinically relevant adverse effects were observed
same,Dose linearity of parameters,[3]; 3 to 60 mg single oral dose,linear
CC[C@H]1C[C@H]2C[C@H]3c4[nH]c5ccc(O)cc5c4CCN(C2)[C@@H]13 [noribogaine],Findings at the NOAEL dose,dogs [4]; 5 mg/kg oral,only transient reduction in food consumption in one dog
same,Convulsions and other CNS-related clinical signs,dogs [4]; 10 mg/kg oral,occurred
same,Onset of convulsions and CNS-related clinical signs after dosing,dogs [4]; 10 mg/kg oral,20 min
same,Mortality,dogs [4]; 5 (n=2) or 10 (n=2) mg/kg oral,no mortality occurred
same,NOAEL,dogs [4]; single oral dose,5 mg/kg
same,Toxic effects of high doses,various animal species,"convulsions and other CNS-related clinical signs, respiratory arrest and death"
same,Drug-seeking behavior,drug-seeking behavior,significantly reduced
same,Psychotomimetic effects,psychotomimetic effects,no activity
same,AUC0-24 h,[2]; [5],40.4 ng·h/mL
same,AUC0-last,[2]; [5],31.5 ng·h/mL
same,AUC0-∞,[2]; [5],44.9 ng·h/mL
same,Cmax,[2]; [5],25.3 ng/mL
same,T1/2,[2]; [5],1.0 h
same,Tmax,[2]; [5],0.5 h
same,AUC0-24 h,[2]; [6],55.0 ng·h/mL
same,AUC0-last,[2]; [6],35.4 ng·h/mL
same,AUC0-∞,[2]; [6],45.7 ng·h/mL
same,Cmax,[2]; [6],29.8 ng/mL
same,T1/2,[2]; [6],1.1 h
same,Tmax,[2]; [6],1.0 h
same,AUC0-24 h,[2]; [7],176.2 ng·h/mL
same,AUC0-last,[2]; [7],148.9 ng·h/mL
same,AUC0-∞,[2]; [7],165.3 ng·h/mL
same,Cmax,[2]; [7],68.5 ng/mL
same,T1/2,[2]; [7],1.4 h
same,Tmax,[2]; [7],0.8 h
same,AUC0-24 h,[2]; [8],203.7 ng·h/mL
same,AUC0-last,[2]; [8],169.0 ng·h/mL
same,AUC0-∞,[2]; [8],197.0 ng·h/mL
same,Cmax,[2]; [8],74.1 ng/mL
same,T1/2,[2]; [8],1.6 h
same,Tmax,[2]; [8],0.5 h
same,AUC0-24 h,[2]; [9],3367.9 ng·h/mL
same,AUC0-last,[2]; [9],3367.9 ng·h/mL
same,AUC0-∞,[2]; [9],3425.7 ng·h/mL
same,Cmax,[2]; [9],691 ng/mL
same,T1/2,[2]; [9],4.3 h
same,Tmax,[2]; [9],0.6 h
same,AUC0-24 h,[2]; [10],5951.2 ng·h/mL
same,AUC0-last,[2]; [10],5951.2 ng·h/mL
same,AUC0-∞,[2]; [10],6283.2 ng·h/mL
same,Cmax,[2]; [10],683 ng/mL
same,T1/2,[2]; [10],5.7 h
same,Tmax,[2]; [10],0.6 h
same,AUC0-24 h,"[2]; male dogs, Gr 2 0.5 mg/kg, D 1",59.7 ng·h/mL
same,AUC0-last,"[2]; male dogs, Gr 2 0.5 mg/kg, D 1",46.6 ng·h/mL
same,AUC0-∞,"[2]; male dogs, Gr 2 0.5 mg/kg, D 1",67.8 ng·h/mL
same,Cmax,"[2]; male dogs, Gr 2 0.5 mg/kg, D 1",28.8 ng/mL
same,T1/2,"[2]; male dogs, Gr 2 0.5 mg/kg, D 1",1.3 h
same,Tmax,"[2]; male dogs, Gr 2 0.5 mg/kg, D 1",0.7 h
same,AUC0-24 h,[2]; [11],64.5 ng·h/mL
same,AUC0-last,[2]; [11],53.2 ng·h/mL
same,AUC0-∞,[2]; [11],68.2 ng·h/mL
same,Cmax,[2]; [11],29.4 ng/mL
same,T1/2,[2]; [11],1.3 h
same,Tmax,[2]; [11],0.7 h
same,AUC0-24 h,"[2]; male dogs, Gr 3 1.0 mg/kg, D 1",119.8 ng·h/mL
same,AUC0-last,"[2]; male dogs, Gr 3 1.0 mg/kg, D 1",102.5 ng·h/mL
same,AUC0-∞,"[2]; male dogs, Gr 3 1.0 mg/kg, D 1",120.8 ng·h/mL
same,Cmax,"[2]; male dogs, Gr 3 1.0 mg/kg, D 1",58.6 ng/mL
same,T1/2,"[2]; male dogs, Gr 3 1.0 mg/kg, D 1",1.2 h
same,Tmax,"[2]; male dogs, Gr 3 1.0 mg/kg, D 1",0.9 h
same,AUC0-24 h,[2]; [12],210.4 ng·h/mL
same,AUC0-last,[2]; [12],172.3 ng·h/mL
same,AUC0-∞,[2]; [12],195.7 ng·h/mL
same,Cmax,[2]; [12],67.6 ng/mL
same,T1/2,[2]; [12],1.8 h
same,Tmax,[2]; [12],0.8 h
same,AUC0-24 h,"[2]; male dogs, Gr 4 5.0 mg/kg, D 1",3515.0 ng·h/mL
same,AUC0-last,"[2]; male dogs, Gr 4 5.0 mg/kg, D 1",3515.0 ng·h/mL
same,AUC0-∞,"[2]; male dogs, Gr 4 5.0 mg/kg, D 1",3630.5 ng·h/mL
same,Cmax,"[2]; male dogs, Gr 4 5.0 mg/kg, D 1",693 ng/mL
same,T1/2,"[2]; male dogs, Gr 4 5.0 mg/kg, D 1",4.7 h
same,Tmax,"[2]; male dogs, Gr 4 5.0 mg/kg, D 1",0.6 h
same,AUC0-24 h,[2]; [13],6403.3 ng·h/mL
same,AUC0-last,[2]; [13],6403.3 ng·h/mL
same,AUC0-∞,[2]; [13],6961.4 ng·h/mL
same,Cmax,[2]; [13],716 ng/mL
same,T1/2,[2]; [13],6.5 h
same,Tmax,[2]; [13],0.9 h
same,Single dose maximum tolerated dose (MTD),cynomolgus monkey,greater than 160 mg/kg
same,Mortality or treatment related clinical signs,cynomolgus monkey; doses up to and including 160 mg/kg,No mortality or treatment related clinical signs were noted
same,mean AUC/24 hr,[3]; single dose 3 mg,3.1 ng/mL
same,mean Cmax,[3]; single dose 3 mg,5.2 ng/mL
same,mean AUC/24 hr,[3]; single dose 10 mg,10.6 ng/mL
same,mean Cmax,[3]; single dose 10 mg,14.5 ng/mL
same,mean AUC/24,[3]; single dose 30 mg,29.2 ng/mL
same,mean Cmax,[3]; single dose 30 mg,55.9 ng/mL
same,mean AUC/24,[3]; single dose 60 mg,61 ng/mL
same,mean Cmax,[3]; single dose 60 mg,116 ng/mL
